In ChEMBL document CHEMBL4610034, “Synthesis and biological evaluation of 4-arylcoumarins as potential anti-Alzheimer's disease agents” (Bioorg Med Chem Lett, 2020):
Active and inactive are the calls of the source. The calls are words filed in the database; no cut-off is given here.

Tests used:
[1] = target: T1, Amine oxidase [flavin-containing] B (Rattus norvegicus, UniProt P19643); assay: Inhibition of MAO-B in Wistar rat liver using 4-trifluoromethyl benzylamine as substrate preincubated for 20 mins followed by substrate addition measured after 90 mins by microplate reader assay; type: tissue-based
T1 sequence (P19643 whole entry): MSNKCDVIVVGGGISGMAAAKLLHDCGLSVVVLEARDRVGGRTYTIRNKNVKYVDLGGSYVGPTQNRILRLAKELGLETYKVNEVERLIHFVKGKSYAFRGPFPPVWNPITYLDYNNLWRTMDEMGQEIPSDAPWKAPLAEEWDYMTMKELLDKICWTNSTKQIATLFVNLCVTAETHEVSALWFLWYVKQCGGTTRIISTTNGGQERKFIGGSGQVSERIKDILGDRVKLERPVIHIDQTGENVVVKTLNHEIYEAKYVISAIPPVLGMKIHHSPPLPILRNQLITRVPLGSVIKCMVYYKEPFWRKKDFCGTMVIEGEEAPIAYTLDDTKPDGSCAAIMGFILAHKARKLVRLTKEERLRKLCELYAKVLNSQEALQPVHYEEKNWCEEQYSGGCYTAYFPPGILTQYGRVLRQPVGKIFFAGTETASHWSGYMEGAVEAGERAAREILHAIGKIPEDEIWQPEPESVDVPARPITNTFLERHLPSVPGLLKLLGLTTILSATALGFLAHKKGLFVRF

Cholinesterase = Cholinesterase (Equus caballus, UniProt P81908); assay: Inhibition of equine serum BuChE using butyrylthiocholine as substrate preincubated for 5 mins followed by substrate addition measured after 20 mins by Ellman's method
Cholinesterase, sequence (P81908 whole entry): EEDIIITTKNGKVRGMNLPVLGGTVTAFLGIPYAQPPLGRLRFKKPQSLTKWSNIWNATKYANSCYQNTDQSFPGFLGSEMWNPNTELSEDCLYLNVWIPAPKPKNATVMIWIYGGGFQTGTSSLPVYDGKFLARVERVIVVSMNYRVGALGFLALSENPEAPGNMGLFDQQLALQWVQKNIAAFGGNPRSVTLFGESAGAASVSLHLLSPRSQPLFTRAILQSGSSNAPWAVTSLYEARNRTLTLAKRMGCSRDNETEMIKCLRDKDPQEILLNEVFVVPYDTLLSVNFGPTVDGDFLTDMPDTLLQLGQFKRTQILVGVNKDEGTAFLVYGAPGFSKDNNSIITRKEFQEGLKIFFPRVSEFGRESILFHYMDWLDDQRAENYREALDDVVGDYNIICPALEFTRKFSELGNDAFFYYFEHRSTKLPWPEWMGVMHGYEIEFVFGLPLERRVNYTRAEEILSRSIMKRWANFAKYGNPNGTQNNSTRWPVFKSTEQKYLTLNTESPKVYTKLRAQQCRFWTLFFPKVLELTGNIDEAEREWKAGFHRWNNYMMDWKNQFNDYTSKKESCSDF

[2] = Antioxidant activity assessed as reduction of colourless Fe3+-TPTZ complex to coloured Fe2+-TPTZ complex measured after 5 mins by FRAP assay; type: functional
Acetylcholinesterase = Acetylcholinesterase (Electrophorus electricus, UniProt O42275); assay: Inhibition of electric eel AChE using acetylthiocholine as substrate preincubated for 5 mins followed by substrate addition measured after 20 mins by Ellman's method
Acetylcholinesterase, sequence (O42275 whole entry): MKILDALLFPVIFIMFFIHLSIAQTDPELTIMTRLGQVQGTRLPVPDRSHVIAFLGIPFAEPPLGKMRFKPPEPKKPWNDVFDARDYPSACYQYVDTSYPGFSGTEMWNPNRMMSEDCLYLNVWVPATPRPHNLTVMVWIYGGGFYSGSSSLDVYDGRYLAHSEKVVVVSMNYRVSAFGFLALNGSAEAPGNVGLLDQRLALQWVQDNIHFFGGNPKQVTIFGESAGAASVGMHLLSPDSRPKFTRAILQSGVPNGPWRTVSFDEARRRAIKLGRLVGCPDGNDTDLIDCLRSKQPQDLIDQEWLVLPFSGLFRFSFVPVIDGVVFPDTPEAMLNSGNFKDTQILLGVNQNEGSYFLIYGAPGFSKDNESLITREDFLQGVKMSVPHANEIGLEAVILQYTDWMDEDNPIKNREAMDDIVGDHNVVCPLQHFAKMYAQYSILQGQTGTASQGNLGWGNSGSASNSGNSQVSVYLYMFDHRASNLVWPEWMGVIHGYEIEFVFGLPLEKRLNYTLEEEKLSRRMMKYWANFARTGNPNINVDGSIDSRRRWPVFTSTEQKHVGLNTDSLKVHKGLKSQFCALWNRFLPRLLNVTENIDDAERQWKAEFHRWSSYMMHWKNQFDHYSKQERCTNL

[3] = target: T1, Amine oxidase [flavin-containing] B; assay: Non-competitive inhibition of MAO-B extracted from Wistar rat liver at 5 to 500 uM using varying level of 4-trifluoromethyl benzylamine as substrate preincubated for 20 mins followed by substrate addition measured after 90 mins by microplate reader assay; settings: 1.5 h
[4] = target: Acetylcholinesterase (Electrophorus electricus) (UniProt O42275); assay: Mixed-type inhibition of electric eel AChE at 0.5 to 50 nM using varying level of acetylthiocholine as substrate preincubated for 5 mins followed by substrate addition measured after 20 mins by Ellman's method
Acetylcholinesterase (Electrophorus electricus), sequence (O42275 24-633 limits assumed): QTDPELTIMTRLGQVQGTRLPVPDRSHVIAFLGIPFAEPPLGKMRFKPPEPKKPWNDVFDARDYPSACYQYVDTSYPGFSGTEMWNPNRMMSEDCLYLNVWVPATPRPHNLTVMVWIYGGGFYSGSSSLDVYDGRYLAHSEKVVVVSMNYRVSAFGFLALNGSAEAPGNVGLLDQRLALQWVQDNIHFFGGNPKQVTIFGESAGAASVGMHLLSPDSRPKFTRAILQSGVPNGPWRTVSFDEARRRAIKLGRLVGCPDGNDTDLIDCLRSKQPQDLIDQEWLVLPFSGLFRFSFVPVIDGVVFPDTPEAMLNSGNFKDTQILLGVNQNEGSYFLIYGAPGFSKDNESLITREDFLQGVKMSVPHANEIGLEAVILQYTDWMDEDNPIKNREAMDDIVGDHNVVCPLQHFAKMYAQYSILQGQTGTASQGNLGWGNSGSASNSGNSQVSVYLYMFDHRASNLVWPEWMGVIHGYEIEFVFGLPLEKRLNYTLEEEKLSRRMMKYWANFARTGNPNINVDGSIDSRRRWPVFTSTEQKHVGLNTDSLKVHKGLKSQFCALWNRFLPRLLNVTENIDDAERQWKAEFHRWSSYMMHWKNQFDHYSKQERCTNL

Row | Structure (SMILES) | IC50 [1] [µM] | IC50 (Cholinesterase) [µM] | Activity [2] [mmol/g] | IC50 (Acetylcholinesterase) [µM] | inhibition (INH) [3] | inhibition [4]
1 | O=C1CC(c2ccc(O)cc2)c2c(O)cc(O)cc2O1 (stereo not drawn) | 19.4 | > 300 | 2.26 | > 50 |  | 
2 | COc1ccc(C2CC(=O)Oc3cc(O)cc(O)c32)cc1OC (stereo not drawn) | 141 | > 300 | 1.5 | > 50 |  | 
3 | COc1ccc(C2CC(=O)Oc3c(O)cc(O)cc32)cc1 (stereo not drawn) | 75.4 | > 300 | 2.85 | > 50 |  | 
4 | COc1ccc(C2CC(=O)Oc3cc(O)cc(O)c32)cc1 (stereo not drawn) | 83.7 | > 300 | 1.06 | > 50 |  | 
5 | COc1ccc(-c2cc(=O)oc3cc(O)cc(O)c23)cc1OC | 104 | > 300 | 1.37 | 7.92 |  | 
6 | COc1ccc(-c2cc(=O)oc3c(O)c(O)ccc23)cc1OC | > 300 | > 300 | 9.89 | 0.052 |  | 
7 | O=c1cc(-c2ccc(O)c(O)c2)c2cc(O)cc(O)c2o1 | 22.2 | 208 | 10.5 | 7 |  | 
8 | O=C1CC(c2ccc(O)c(O)c2)c2ccc(O)c(O)c2O1 (stereo not drawn) | 0.43 | 72.5 | 9.6 | 0.283 |  | 
9 | COc1cc(C2CC(=O)Oc3cc(O)ccc32)ccc1O (stereo not drawn) | 82.5 | > 300 | 9.38 | > 50 |  | 
10 | O=c1cc(-c2ccc(O)c(O)c2)c2ccc(O)c(O)c2o1 | 189 | 188 | 10.5 | 7.05 |  | 
11 | O=c1cc(-c2ccc(O)cc2)c2ccc(O)c(O)c2o1 | 293 | > 300 | 9.89 | 9.45 |  | 
12 | COc1ccc(C2CC(=O)Oc3c2ccc(O)c3O)cc1 (stereo not drawn) | 2.18 | 149 | 9.17 | 21.6 |  | 
13 | O=C1O[C@H]([C@@H](O)CO)C(O)=C1O |  |  | 9.87 |  |  | 
14 | COc1cc(C2CC(=O)Oc3cc(O)cc(O)c32)ccc1O (stereo not drawn) | 55.9 | > 300 | 9.01 | > 50 |  | 
15 | COc1cc(-c2cc(=O)oc3c(O)c(O)ccc23)cc(OC)c1OC | > 300 | > 300 | 9.65 | 0.299 |  | 
16 | COc1ccc(C2CC(=O)Oc3cc(O)ccc32)cc1 (stereo not drawn) | > 300 | > 300 | 0.896 | > 50 |  | 
17 | O=c1cc(-c2ccc(O)c(O)c2)c2ccc(O)cc2o1 | > 300 | > 300 | 9.71 | 8.86 |  | 
18 | COc1ccc(C2CC(=O)Oc3c(O)cc(O)cc32)cc1OC (stereo not drawn) | 26.6 | > 300 | 4.76 | > 50 |  | 
19 | COc1cc(C2CC(=O)Oc3c2ccc(O)c3O)ccc1O (stereo not drawn) | 0.257 | 134 | 10.1 | 10.9 | Active | 
20 | O=c1cc(-c2cc(O)c(O)c(O)c2)c2ccc(O)c(O)c2o1 | 1.99 | 106 | 10.1 | 0.025 |  | Active
21 | COc1ccc(C2CC(=O)Oc3ccc(O)cc32)cc1OC (stereo not drawn) | > 300 | > 300 | 0.922 | > 50 |  | 
